Experiments:
HeLa cells = assay: Cell permeability of living HeLa cells; type: in vitro ADME; conditions: alone or as its Ni^2+ adduct, 5 μM, 5 min, 22° C., PBS
Protocol: (§1) The cells as described in Example 3 were used for labeling with NTA-DCF two days after transfection with plasmid. Immediately prior to labeling, the cells were washed once with PBS. A stock solution of complexed Ni^2+-NTA-DCF was prepared by mixing 2.5 mM NiCl2 and 2.5 mM NTA-DCF in a 1:1 ratio in PBS. HeLa and HEK 293-T cells were each washed once with PBS, then incubated with 5 μM Ni^2+-NTA-DCF for 5 min at 22° C. in PBS. The cells were subsequently rinsed twice with PBS, fixed with 4% paraformaldehyde for 5 min, washed with two portions of PBS, and mounted using Vectashield anti-fading reagent (Vector Labs). As a negative control, a cell sample was incubated with NTA-DCF without added Ni^2+. In order to gauge the reversibility of staining, 5 mM EDTA was added to a sample of cells stained with 5 μM NTA-DCF and 5 μM Ni^2+. […] This impermeability can be exploited to label and image selectively proteins on the extracellular side of the cell membrane. The NTA-DCF composition was premixed with an equimolar concentration of NiCl2, and the mixture was added to a sample containing either HeLa or HEK 293-T cells.

HEK 293-T cells = assay: Cell permeability of living HEK 293-T cells; type: in vitro ADME; conditions: alone or as its Ni^2+ adduct, 5 μM, 5 min, 22° C., PBS
Protocol: as §1

[1] = test system: polyhistidine sequences on HeLa cells transfected with pDisplay-6×His; assay: Fluorescent labeling of extracellular His6 tags on transfected HeLa cells (confocal microscopy); type: cell-based
Protocol: (§2) This example describes the incorporation of an affinity tag within a target analyte (e.g., a cell). A polyhistidine affinity tag was incorporated within a plasmid, which was then used for transfection with the target cell. pDisplay-6×His was constructed by introduction of an oligonucleotide encoding for a His6 tag (5′-CATCATCATCATCATCAT-3′) into a pDisplay plasmid (Invitrogen) digested with BglII and SalI.
(§3) Both HeLa and HEK 293-T cells were cultured in Dulbecco's Modified Eagle Medium (DMEM) supplemented with 10% fetal calf serum (FCS, Invitrogen), glutamine (2 mM), Penicillin (100 units/mL) and Streptomycin (100 μg/mL). The cells were passed and plated on 18 mm glass coverslips coated with 0.2% gelatin 36 hours before transfection. […]
(§4) The fluorescently-labeled cells may be monitored by confocal microscopy. Confocal images of cells (NTA-DCF staining and mRFP fluorescence) were obtained with a Zeiss LSM510 microscope equipped with a 100× objective. […] Images of cells stained with Hoechst 33285 were obtained with a Zeiss Axioscope fluorescence microscope equipped with a 40× objective and a Hamamatsu digital camera. […]
(§5) A metal chelator was added to observe the effect on binding of NTA-DCF probe to the target cell. […] In the absence of EDTA or a similar metal scavenging agent, the label-protein construct persisted for at least 20 min after washing, but its stability has not yet been fully assessed.

[2] = test system: cell cultures (nuclei stained with Hoechst 33285); assay: Nuclear morphology study of NTA-DCF toxicity; type: cell-based
Protocol: Cells were incubated with either NTA-DCF or PBS for five min, washed twice with PBS, and fixed for 5 min with 4% p-formaldehyde. After fixation, the cells were rinsed four times with PBS (5 min each wash). Hoechst 33285 dye (Molecular Probes) was added to the second rinse such that the final concentration reached 2 μg/ml.

[3] = test system: polyhistidine sequences on HEK 293-T cells transfected with pDisplay-6×His; assay: Fluorescent labeling of extracellular His6 tags on transfected HEK 293-T cells (confocal microscopy); type: cell-based
Protocol: as §2, §3, §4, §5

[4] = Photophysical properties (absorbance, emission, quantum yield) in pH 7 buffer; type: physicochemical; conditions: for Quantum yield Φ: no metal ion, pH 7, 22° C., relative to fluorescein
From the text: General Procedure. Acetonitrile (MeCN) was dried over 3 Å molecular sieves. Triethylamine (Et3N) and chloroform (CHCl3) were purchased from Aldrich and used as received. 6-Carboxy-2′,7′-dichlorofluorescein-3′,6′-diacetatesuccinimidyl ester was synthesized by a method previously developed in this laboratory. ^1N,N-Bis(carboxymethyl)-L-lysine hydrate was purchased from Fluka and used as received. ^1H and ^13C NMR spectra were acquired on either a Varian 300 Mhz or a Varian 500 MHz spectrometer and referenced to internal standards. IR spectra were collected on an Avatar 360 FT-IR instrument. Melting points were measured with a Mel-Temp apparatus. Fluorescence spectra were obtained on a Hitachi F-3020 spectrofluorimeter, and UV/vis spectra were acquired on a Cary 1E spectrophotometer. Low-resolution mass spectra were collected on an Agilent 1100 Series LC/MSD system. High-resolution mass spectra were provided by staff at the MIT Department of Chemistry Instrumentation Facility. Preliminary cell images were acquired with a Nikon Eclipse TS100 microscope equipped with an RT Diagnostics camera with illumination provided by a Chiu Mercury 100 W lamp. Magnification was 20×. The cell imaging system was operated with Spot Advanced software. Fluorescence images were obtained using a FITC-HYQ filter cube (excitation 460-500 nm, bandpass 510-560 nm). Select cell images were acquired with a LSM510 confocal microscope.
Aqueous solutions were prepared with Millipore water. A 2.25 mM stock solution of NTA-DCF in DMSO was prepared, separated into aliquots, stored at −25° C., and thawed in the dark immediately before use. All spectroscopic data were collected in a pH 7 buffer solution of 50 mM piperazine-N,N′-bis(2-ethanesulfonic acid) (PIPES) and 100 mM KCl unless noted otherwise. Solution magnetic susceptibilities were measured by the Evan's method. Spectroscopic data were taken at room temperature (22° C.). Quantum yields were measured relative to fluorescein in 0.1 M NaOH (Φ=0.95).
The photophysical properties of the signaling entity were measured to observe the effect that introduction of the NTA functionality may have on the absorbance and/or emission of the signaling entity.

[5] = pDisplay-6×His, premixed with equimolar NiCl2

Compound: O=C(O)CN(CC(=O)O)C(CCCCNC(=O)c1ccc(C(=O)O)c(-c2c3cc(Cl)c(=O)cc-3oc3cc(O)c(Cl)cc23)c1)C(=O)O (centres unmarked) [NTA-DCF, N-[5-(Bis-carboxymethyl-amino)-5-carboxy-pentyl]-2-(2,7-dichloro-6-hydroxy-3-oxo-3H-xanthen-9-yl)-terephthalamic acid]
- Entry into cells (HeLa cells): not enter
- Entry into cells (HEK 293-T cells): not enter
- Binding of the probe when Ni^2+ is unavailable ([1]; 5 μM NTA-DCF without NiCl2, 5 min, FIG. 4B): blocked
- Fluorescent labeling of polyhistidine sequences on extracellular plasma membrane surface [1, 5]: fluorescently label
- melting point: 182 °C (dec.)
- Toxicity (nuclear morphology study) ([2]; 5-μM dose, five min incubation, FIG. 7): not toxic
- Change of size and shape of nuclei ([2]; addition of NTA-DCF, five min, Hoechst staining): Neither the size nor shapes of the nuclei change
- Binding of the probe when the polyhistidine tag is not expressed ([3]; pDisplay without His6 tags, 5 μM NTA-DCF and 5 μM NiCl2, FIG. 5B): blocked
- Fluorescent labeling of polyhistidine sequences on extracellular plasma membrane surface [3, 5]: fluorescently label
- Decrease in fluorescence emission upon addition of NiCl2 ([4]; 50 mM PIPES, 100 mM KCl, pH 7.0, FIG. 2): 5%
- Quantum yield Φ after chelation of a paramagnetic metal ion ([4]; after chelation of Ni^2+, relative to fluorescein in 0.1 M NaOH): 0.72
- Extinction coefficient ε ([4]; at 504 nm): 86000 M⁻¹ cm⁻¹
- Quantum yield Φ ([4]; 50 mM PIPES, 100 mM KCl): 0.78
- Absorption band ([4]; pH 7 buffer): 504 nm
- Emission λmax ([4]; pH 7 buffer): 527 nm

Compound: O=C1OC2(c3cc(Cl)c(O)cc3Oc3cc(O)c(Cl)cc32)c2ccccc21 [2′,7′-dichlorofluorescein, reference compound]
- Quantum yield Φ ([4]; 50 mM PIPES, 100 mM KCl): 0.88
- Emission λmax ([4]; pH 7 buffer): 526 nm
